Test results from paper PMC8282797, “Strictly regulated agonist-dependent activation of AMPA-R is the key characteristic of TAK-653 for robust synaptic responses and cognitive improvement” (Scientific Reports, 2021).
“Also recorded” adds a separate entry of the source. Like-named read-outs stand apart in the source and are kept apart here.

Assays:
[1] = tested on: MK-801-induced working memory deficit in rats; test: Radial arm maze (RAM) test, MK-801-induced working memory deficit; assay type: in vivo, rat
Experimental: RAM tests were performed using 9-week-old male Long-Evans rats as previously described with a minor modification. Each arm was 50 cm long, 10 cm wide and 40 cm high, and the maze was elevated 50 cm above the floor. Long-Evans rats were food-restricted to 85% of free-feeding body weight throughout the experimental period. Rats were well trained to collect pellets placed on the edge of each arm. The learning criterion for the testing session was defined as 2 errors or fewer for 2 consecutive days. In the testing session, each rat was placed on the maze facing the fixed arm at the start of the trial. The entry of rats into each arm was recorded in sequence until all pellets in the 8 arms were consumed, or 5 min had elapsed. […] Thirty min after dosing of vehicle or MK-801, rats were placed on the maze. Details are described in the Supplementary Information.
The experiment was performed using 9-week-old male Long-Evans rats as described previously (Zajaczkowski et al., 1996) with a minor modification. Each arm was 50 cm long, 10 cm wide and 40 cm high, and the maze was elevated 50 cm above the floor. After being fasted for 24 h, male Long-Evans rats were food-restricted to 85% of free-feeding body weight on the first day of exposure to the maze and throughout the experimental period. The experiment consists of two sessions, training and testing session. In the training session, rats were habituated to the maze and then trained. Reinforcement consisted of 3 food pellets (45 mg each) in the food cup was used. On the first day of habituation to the maze, reinforcements were placed near the entrance and at the mid-point of each arm. Three rats were placed on the maze at one time and allowed to explore and consume the pellets for 8 min. On the second day of habituation, each rat was placed on the maze and allowed 5 min to consume the pellets placed at the mid-point and in the food cup at the end of each arm. From the third day, reinforcement was placed in the food cup at the end of each arm. Rats were well trained to collect pellets placed on the edge of each arm. The learning criterion for the testing session was defined as 2 errors or less for two consecutive days. In the previous day of the testing session, baseline level of performance was qualified to confirm that rats completed collecting all pellets placed in the 8 arms with two errors or less. In the testing session, each rat was placed on the maze facing away from the experimenter and facing the fixed arm at the start of the trial. The entry of rats into each arm was recorded in sequence. Rats were allowed to explore until all pellets in the 8 arms were consumed, or 5 min had elapsed. Entry into an arm previously chosen was counted as an error. […] […] Thirty min after dosing of vehicle or MK-801, rats were placed on the maze. Data were indicated as the mean ± SEM in the testing session.

AMPA-R [2] = test: Whole-cell patch clamp recording in acute PFC slices (AMPA-R-mediated EPSPs); assay type: cell-based, rat; design: key to Synaptic EPSP response: -: No effect or slight effect; +: Potent; ++: Very potent; details: for Synaptic EPSP response: summary grade
Experimental: Coronal PFC slices were prepared from male Sprague–Dawley rats (10- to 14-day-old). The slices including layer V PFC pyramidal neurons were perfused at a flow rate of 1–2 ml/min with recording aCSF containing the following: 124 mM NaCl, 5 mM KCl, 1.2 mM NaH2PO4, 1.5 mM MgCl2, 2.5 mM CaCl2, 10 mM glucose, 24 mM NaHCO3 bubbled with carbogen (95% O2; 5% CO2). Current clamp recordings at holding potential of approximately − 65 mV with constant current were carried out at 32–33 °C using a pipette filled with an intracellular solution consisting of: 140 mM K-gluconate, 4 mM KCl, 10 mM HEPES, 0.2 mM EGTA, 4 mM MgATP, 0.3 mM Na2GTP, pH 7.3 with KOH in the presence of bicuculline (20 μM), CGP52422 (10 μM), and APV (50 μM) to block GABAA and B and NMDA receptors, respectively. Methods are described in the Supplementary Information.
Coronal prefrontal cortex (PFC) slices were prepared from male Sprague-Dawley rats (10- to 14-day-old). Animals were sacrificed following acute decapitation, and their brain was quickly removed and placed in an ice-cold modified artificial cerebrospinal fluid (aCSF) of the following composition: 92 mM N-methyl-D-glucamine (NMDG), 2.5 mM KCl, 1.25 mM NaH2PO4, 30 mM NaHCO3, 20 mM HEPES, 25 mM glucose, 2 mM thiourea, 5 mM Na-ascorbate, 3 mM Na-pyruvate, 0.5 mM CaCl2, and 10 mM MgSO4. The pH of the solution was titrated to 7.3-7.4 with concentrated HCl. Coronal slices were cut at a thickness of 300 μm with using a linear slicer PRO7 (Dosaka EM, Kyoto, Japan). Slices were initially recovered for ≤ 15 min at 34°C and then transferred to a holding chamber containing HEPES holding aCSF (92 mM NaCl, 2.5 mM KCl, 1.25 mM NaH2PO4, 30 mM NaHCO3, 20 mM HEPES, 25 mM glucose, 2 mM thiourea, 5 mM Na-ascorbate, 3 mM Na-pyruvate, 2 mM CaCl2 and 2 mM MgSO4) at room temperature for at least 1 h before starting the recording. The slices were then transferred to the recording chamber mounted on a FN1 microscope (Nikon, Tokyo, Japan), in which they were submerged and perfused at a flow rate of 1-2 ml/min with recording aCSF containing the following: 124 mM NaCl, 5 mM KCl, 1.2 mM NaH2PO4, 1.5 mM MgCl2, 2.5 mM CaCl2, 10 mM glucose, 24 mM NaHCO3. All aCSF solutions were continuously bubbled with carbogen (95% O2; 5% CO2). Differential interference contrast (DIC) microscopy (C10639, Hamamatsu, Japan) was used to visualize pyramidal neurons in the PFC. Patch pipettes (5-6 MΩ) were prepared from borosilicate capillary glass using a micropipette puller PC-10 (NARISHIGE, Tokyo, Japan). Current clamp recordings were carried out at 32-33°C using a pipette filled with intracellular solution consisting of: 140 mM K-gluconate, 4 mM KCl, 10 mM HEPES, 0.2 mM EGTA, 4 mM MgATP, 0.3 mM Na2GTP, pH 7.3 with KOH in the presence of bicuculline (20 μM), CGP52422 (10 μM), and APV (50 μM) to block GABAA and B and NMDA receptors, respectively. Signals were recorded using a Multiclamp 700B amplifier (Molecular Devices, LLC, Orleans Drive Sunnyvale, CA), digitized using a Digidata 1440A interface board, filtered between 2 kHz, sampled at 10 kHz, and analyzed with pClamp10 software. Layer V PFC pyramidal neurons were recorded at holding potential of approximately –65 mV with constant current. A hyperpolarizing step (–20 pA) prior to each stimulation was used to monitor any changes in access resistance. Postsynaptic potentials were evoked by constant current single stimulation pulses (100 μs, 10-100 μA) delivered with a 20-s interstimulus interval using monopolar stimulating electrodes positioned in layer I.

GluA2o LBD = GluA2o LBD (Homo sapiens, UniProt P42262); design: method as in earlier work; details: read-out: IC50, binding affinity to the GluA2o LBD by SPA using [3H]-HBT1; cited from earlier work
AMPA-R [3] = tested on: AMPA-R; design: key to Single effect on Ca2+ level: -: No effect or slight effect; +: Potent; ++: Very potent; details: cited from earlier work; for Intracellular Ca2+ level, Agonistic effect @30 μM: absence of AMPA, % of 5 μM AMPA + 10 μM HBT1 response; for EC50: in the presence of 5 μM AMPA, read-out: Intracellular Ca2+ level, Potentiation EC50; for Single effect on Ca2+ level: summary grade
AMPA-R [4] = tested on: AMPA-R; design: key to Single effect on AMPA-R currents: -: No effect or slight effect; +: Potent; ++: Very potent; details: cited from earlier work; for AMPA-R currents, Agonistic effect @30 μM: absence of AMPA, % of AMPA (100 μM)-induced steady-state response; for EC50: in the presence of 1 μM AMPA, read-out: AMPA-R currents, Potentiation EC50; for Single effect on AMPA-R currents: summary grade
naïve rats = details: cited from earlier work; for NORT (effective doses): summary
rats [5] = details: cited from earlier work
rats [6] = tested on: rats; design: method as in PMID 30209408; details: 10 and 30 mg/kg, p.o.; cited from earlier work
[7] = tested on: MK-801-induced working memory deficit in rats; design: method as in earlier work; details: summary, fasted conditions; cited from earlier work
[8] = design: method as in earlier work; details: cited from earlier work

Chain of GluA2o LBD (P42262 with tags, fused parts or gaps): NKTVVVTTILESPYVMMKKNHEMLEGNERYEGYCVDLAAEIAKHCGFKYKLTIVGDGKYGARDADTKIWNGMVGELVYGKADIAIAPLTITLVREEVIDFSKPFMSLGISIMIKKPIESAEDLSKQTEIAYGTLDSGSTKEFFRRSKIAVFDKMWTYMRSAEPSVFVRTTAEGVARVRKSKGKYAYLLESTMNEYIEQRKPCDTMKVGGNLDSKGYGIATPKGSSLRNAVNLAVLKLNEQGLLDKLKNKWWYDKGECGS

| Structure (SMILES) | Synaptic EPSP response (AMPA-R [2]) | IC50 (GluA2o LBD) | Intracellular Ca2+ level, Agonistic effect @30 μM (AMPA-R [3]) | EC50 (AMPA-R [3]) | Single effect on Ca2+ level (AMPA-R [3]) | AMPA-R currents, Agonistic effect @30 μM (AMPA-R [4]) | EC50 (AMPA-R [4]) | Single effect on AMPA-R currents (AMPA-R [4]) | NORT (effective doses) (naïve rats) | Margin based on AUCplasma (rats [5]) | Margin based on plasma Cmax (rats [5]) | also measured |
| --- | --- | --- | --- | --- | --- | --- | --- | --- | --- | --- | --- | --- |
| CC(C)S(=O)(=O)NC[C@H](C)c1ccc(-c2ccc(C#N)cc2)cc1 [LY451646] | + | 390 nM | 88% | 780 nM | ++ | 39% | 1900 nM | + | Effective (1, 3) | 4.0 fold | 3.4 fold | Working memory in the RAM test ([1]; 0.03 to 1 mg/kg, p.o., MK-801 0.08 mg/kg, s.c.): neither LY451646 at 0.03 to 1 mg/kg, p.o. nor AMPA at 0.1 to 3 mg/kg, i.p. improve; RAM (effective doses) ([1]; summary): No effect; Membrane potentials of recorded neurons (AMPA-R [2]): did not increase; Suprathreshold response (AMPA-R [2]; 30 μM for 10 min): enhanced the suprathreshold response; Suprathreshold polysynaptic EPSPs (number of spikes, EPSP duration) (AMPA-R [2]; 0.3 to 30 μM): moderate potentiation; Dose improving visual learning and memory in NOR test (naïve rats; p.o., rats): ≥ 1 mg/kg; Seizure (rats [6]): induced seizure |
| O=S1(=O)CCN2C=CC=C(c3ccc(Oc4ccccc4)cc3)C2=N1 [TAK-137, 9-(4-phenoxyphenyl)-3,4-dihydropyrido[2,1-c][1,2,4]thiadiazine 2,2-dioxide] | ++ | 65 nM | 7.6% | 420 nM | ─ | 6.4% | 1400 nM | ─ | Effective (0.1, 1) | 122 fold | 42 fold | Polysynaptic EPSP duration and evoked spikes (AMPA-R [2]; 3 μM, 10 min): potently enhanced; also recorded: robustly enhanced; RAM (effective doses) [7]: Effective (0.2, 0.6) ^\; Brain concentration under fasted conditions, relative to fed conditions [8]: 71%; Plasma concentration under fasted conditions, relative to fed conditions [8]: 67% |
